Measurements published in patent publication US20150306269A1, “UPSTREAM HYDROGEN PEROXIDE […]” (The Vincit Company, LLC, priority 2014, published 2015).

What was measured:
bacteria [1] = assay: Egg shell testing: total plate count of inoculated egg shells after exposure to treated air; type: cell-based; details: half egg shells inoculated in broth with about seven log bacteria; 10 minutes exposure; nebulized 3% hydrogen peroxide; swab plated on Tryptic Soy Agar, 24 hours
Method: In preliminary testing, twelve store-bought fresh eggs were prepared by blowing out the contents and cutting the egg shells in half. Twenty-four half shells were inoculated by submersion in a broth solution containing about a seven log concentration bacteria. Egg shells were removed and allowed to air dry. […] The final six shells were designated the control group and were exposed only to untreated air circulated though the sanitation system. The twenty-four half shells were allowed to be exposed to their respective situation for a period of 10 minutes.
Immediately following treatment, approximately 1 square inch swab samples were taken from the surface of each egg shell then serially diluted and plated on Tryptic Soy Agar and incubated for 24 hours to obtain a total plate count.

bacteria [2] = assay: Chicken wings: total plate count of inoculated chicken wing skin after exposure to treated air; type: cell-based; details: chicken wings inoculated in Tryptic Soy Broth with about seven log bacteria; maximum over 10, 30, 45 and 60 seconds treatment; nebulized 3% hydrogen peroxide; Tryptic Soy Agar, 24 hours
Method: Similar testing was performed on chicken wings. Twenty-four store-bought chicken wings were prepared by submersing them in a Tryptic Soy Broth broth solution containing about a seven log concentration of bacteria. The wings were removed and allowed to air dry. The wings were separated into groups of six, one group designated to be exposed to air running through the air sanitation system containing only nebulized 3% hydrogen peroxide, another group exposed to UV light-generated radicals, and the last group exposed to both 3% H2O2 and UV radicals. The final six wings were designated the control group and were exposed only to untreated air circulated though the sanitation system.
Immediately following treatment at times of 10 seconds, 30 seconds, 45 seconds and 60 seconds, approximately 1 square inch of skin on each wing was swabbed with moistened sample sponges. The sponges were stomached in phosphate buffer solution for 2 minutes, then the buffer solution was serially diluted and plated on Tryptic Soy Agar and incubated for 24 hours to obtain a total plate count.

Q: `OO` [H2O2, hydrogen peroxide] was tested. Which “log10 reduction (total plate count)” value (bacteria [1]) did it give?
A: 1.5 log10

Q: What about the “maximum log10 reduction (total plate count)” value (bacteria [2]) of the same compound?
A: 0.9 log10
